The record followed here is patent publication US12325697B2 (Nimbus Clio, Inc., priority 2021, dated 2025).

Assay [1] has as its target Recombinant human Cbl-b (aa 36-427) (Homo sapiens (Human), UniProt Q13191). Nature of the assay: Cbl-b Biochemical Assay (TR-FRET). The settings on record: read-out: TR-FRET hCbl-b IC50. Put shortly:
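Two-step TR-FRET: 6 nM biotinylated Cbl-b preincubated 30-60 min with compound, then 60 min at RT with 1-2.5 nM Src-Zap70 and 0.5 mM ATP in HEPES pH 7.0 buffer, 1% DMSO. Stopped with 5 mM EDTA plus 100 nM UBE2D2-Ub-FL-BODIPY and 1 nM streptavidin-Tb, 60 min; 520 nm signal; IC50 from 4-parameter fit.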

The target in assay [2] is Recombinant human c-Cbl (aa 47-435) (Homo sapiens (Human), UniProt P22681). The assay can be described thus: c-Cbl Biochemical Assay (TR-FRET). Put shortly:
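Biotinylated c-Cbl (6 nM) preincubated 30 min RT with compound, then reacted 60-90 min with Src-Zap70 (2.5-10 nM) and 0.5 mM ATP, pH 7.0 HEPES buffer. Stopped with EDTA; 100 nM Bodipy-ubiquitinated UBE2D2 binding read by TR-FRET after 60 min; IC50 from 4-parameter fit.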
Background: TR-FRET usually uses a lanthanide donor and a delayed reading to cut background.

Sequence of Recombinant human c-Cbl (aa 47-435) (P22681 47-435): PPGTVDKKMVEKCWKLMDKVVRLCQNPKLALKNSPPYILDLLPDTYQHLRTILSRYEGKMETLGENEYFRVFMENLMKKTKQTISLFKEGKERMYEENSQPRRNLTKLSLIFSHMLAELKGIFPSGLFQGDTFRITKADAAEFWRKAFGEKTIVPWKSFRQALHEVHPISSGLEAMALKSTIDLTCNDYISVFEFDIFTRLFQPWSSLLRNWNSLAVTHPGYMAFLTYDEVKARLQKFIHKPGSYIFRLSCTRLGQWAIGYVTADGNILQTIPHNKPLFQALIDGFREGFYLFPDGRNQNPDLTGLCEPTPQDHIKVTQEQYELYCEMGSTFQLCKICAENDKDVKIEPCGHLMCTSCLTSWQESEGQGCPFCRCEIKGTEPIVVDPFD
Sequence of Recombinant human Cbl-b (aa 36-427) (Q13191 36-427): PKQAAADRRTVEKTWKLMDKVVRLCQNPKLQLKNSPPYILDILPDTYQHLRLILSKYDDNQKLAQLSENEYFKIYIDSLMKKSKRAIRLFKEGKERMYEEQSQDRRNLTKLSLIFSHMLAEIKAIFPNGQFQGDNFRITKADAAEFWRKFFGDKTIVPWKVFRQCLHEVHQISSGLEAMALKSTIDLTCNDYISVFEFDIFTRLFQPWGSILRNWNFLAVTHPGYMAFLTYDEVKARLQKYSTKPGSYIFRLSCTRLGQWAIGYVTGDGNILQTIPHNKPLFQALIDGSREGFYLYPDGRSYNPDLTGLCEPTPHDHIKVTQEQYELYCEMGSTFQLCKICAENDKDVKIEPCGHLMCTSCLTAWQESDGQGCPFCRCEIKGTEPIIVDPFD

In the case of `CN(Cc1ccc2c(c1)C(=O)N(c1cc(-c3ccc(Cl)cc3-c3nncn3C)cc(C3CC3)n1)C2)CC1(O)CCC1` [AMG-1, 2-(4-(4-Chloro-2-(4-methyl-4H-1,2,4-triazol-3-yl)phenyl)-6-cyclopropylpyridin-2-yl)-6-((((1-hydroxycyclobutyl)methyl)(methyl)amino)methyl)isoindolin-1-one], the IC50 in assay [1] and in assay [2] was not above 200 nM in each case.

Regarding `CN(Cc1ccc2c(c1)C(=O)N(c1cc(-c3ccc(C#N)cc3-c3nncn3C)cc(C3CC3)n1)C2)CC(C)(C)O` [AMH-1, 4-[2-Cyclopropyl-6-(6-{[(2-hydroxy-2-methylpropyl)(methyl)amino]methyl}-1-oxo-3H-isoindol-2-yl)pyridin-4-yl]-3-(4-methyl-1,2,4-triazol-3-yl)benzonitrile], the IC50 in assay [1] and in assay [2] was not above 200 nM throughout.

On to `Cn1cnnc1-c1cc(F)ccc1-c1cc(C2CC2)nc(N2Cc3c(F)cc(CO)cc3C2=O)c1` [AMI-1, 2-{6-Cyclopropyl-4-[4-fluoro-2-(4-methyl-1,2,4-triazol-3-yl)phenyl]pyridin-2-yl}-4-fluoro-6-(hydroxymethyl)-3H-isoindol-1-one], for which the IC50 in assay [1] and in assay [2] was not above 200 nM throughout.

For the compound `Cn1cnnc1-c1cc(F)ccc1-c1cc(C2CC2)nc(N2Cc3c(F)cc(CNCC4(O)CCC4)cc3C2=O)c1` [AMJ-1, 2-{6-Cyclopropyl-4-[4-fluoro-2-(4-methyl-1,2,4-triazol-3-yl)phenyl]pyridin-2-yl}-4-fluoro-6-({[(1-hydroxycyclobutyl)methyl]amino}methyl)-3H-isoindol-1-one], the IC50 in assay [1] and in assay [2] was not above 200 nM throughout.

On to `CNCCNCc1cc2c(c(C(F)(F)F)c1)CN(c1cc(-c3ccc(C#N)cc3-c3nncn3C)cc(C3CC3)n1)C2=O` [AMK-3, 4-{2-Cyclopropyl-6-[6-({[2-(methylamino)ethyl]amino}methyl)-1-oxo-4-(trifluoromethyl)-3H-isoindol-2-yl]pyridin-4-yl}-3-(4-methyl-1,2,4-triazol-3-yl)benzonitrile], for which the IC50 in assay [1] and in assay [2] was not above 200 nM throughout.

As for `CN(Cc1cc(F)c2c(c1)C(=O)N(c1cc(-c3ccc(F)cc3-c3nncn3C)cc(C3CC3)n1)C2)CC1(O)CCC1` [AML-1, 2-{6-Cyclopropyl-4-[4-fluoro-2-(4-methyl-1,2,4-triazol-3-yl)phenyl]pyridin-2-yl}-4-fluoro-6-({[(1-hydroxycyclobutyl)methyl](methyl)amino}methyl)-3H-isoindol-1-one], the IC50 in assay [1] and in assay [2] was not above 200 nM throughout.

Regarding `CN(Cc1ccc2c(c1)C(=O)N(c1cc(-c3ccc(F)cc3-c3nncn3C)cc(C3CC3)n1)C2)CC(C)(C)O` [AMM-1, 2-{6-Cyclopropyl-4-[4-fluoro-2-(4-methyl-1,2,4-triazol-3-yl)phenyl]pyridin-2-yl}-6-{[(2-hydroxy-2-methylpropyl)(methyl)amino]methyl}-3H-isoindol-1-one], the IC50 in assay [1] and in assay [2] was not above 200 nM each time.

As to `Cn1cnnc1-c1cc(C#N)ccc1-c1cc(C2CC2)nc(N2Cc3ccc(CN4C[C@@H]5C[C@H]4CO5)cc3C2=O)c1` [AMN-1, 4-(2-Cyclopropyl-6-{6-[(1S,4S)-2-oxa-5-azabicyclo[2.2.1]heptan-5-ylmethyl]-1-oxo-3H-isoindol-2-yl}pyridin-4-yl)-3-(4-methyl-1,2,4-triazol-3-yl)benzonitrile], the IC50 in assay [1] and in assay [2] was not above 200 nM each time.

Take `Cn1cnnc1-c1cc(C#N)ccc1-c1cc(C2CC2)nc(N2Cc3ccc(CNC4CCOCC4)cc3C2=O)c1` [AMO-2, 4-(2-Cyclopropyl-6-{6-[(oxan-4-ylamino)methyl]-1-oxo-3H-isoindol-2-yl}pyridin-4-yl)-3-(4-methyl-1,2,4-triazol-3-yl)benzonitrile]: the IC50 in assay [1] and in assay [2] was not above 200 nM throughout.

`COCCNCc1cc2c(c(F)c1F)CN(c1cc(-c3ccc(C#N)cc3-c3nncn3C)cc(C3CC3)n1)C2=O` [AMP-1, 4-[2-Cyclopropyl-6-(4,5-difluoro-6-{[(2-methoxyethyl)amino]methyl}-1-oxo-3H-isoindol-2-yl)pyridin-4-yl]-3-(4-methyl-1,2,4-triazol-3-yl)benzonitrile]: the IC50 in assay [1] and in assay [2] was not above 200 nM throughout.

For the compound `CN(Cc1cc(F)c2c(c1)C(=O)N(c1cc(-c3ccc(C#N)cc3-c3nncn3C)cc(C3CC3)n1)C2)C1CC1` [AMQ-2, 4-[2-Cyclopropyl-6-(6-{[cyclopropyl(methyl)amino]methyl}-4-fluoro-1-oxo-3H-isoindol-2-yl)pyridin-4-yl]-3-(4-methyl-1,2,4-triazol-3-yl)benzonitrile], the IC50 in assay [1] and in assay [2] was not above 200 nM throughout.

As for `Cn1cnnc1-c1cc(C#N)ccc1-c1cc(C2CC2)nc(N2Cc3c(F)cc(CN4CCC[C@](C)(O)C4)cc3C2=O)c1` [AMR-2, 4-[2-Cyclopropyl-6-(4-fluoro-6-{[(3S)-3-hydroxy-3-methylpiperidin-1-yl]methyl}-1-oxo-3H-isoindol-2-yl)pyridin-4-yl]-3-(4-methyl-1,2,4-triazol-3-yl)benzonitrile], the IC50 in assay [1] and in assay [2] was not above 200 nM in each case.

Turning to `Cn1cnnc1-c1cc(C#N)ccc1-c1cc(C2CC2)nc(N2Cc3c(F)cc(CN4CC5(COC5)C4)cc3C2=O)c1` [AMS-2, 4-[2-Cyclopropyl-6-(4-fluoro-6-{2-oxa-6-azaspiro [3.3]heptan-6-ylmethyl}-1-oxo-3H-isoindol-2-yl)pyridin-4-yl]-3-(4-methyl-1,2,4-triazol-3-yl)benzonitrile], the IC50 in assay [1] and in assay [2] was not above 200 nM each time.

As to `Cn1cnnc1-c1cc(C#N)ccc1-c1cc(C2CC2)nc(N2Cc3ccc(C(C)(C)NCC4COC4)cc3C2=O)c1` [AMT-2, 4-[2-Cyclopropyl-6-(6-{2-[(oxetan-3-ylmethyl)amino]propan-2-yl}-1-oxo-3H-isoindol-2-yl)pyridin-4-yl]-3-(4-methyl-1,2,4-triazol-3-yl) benzonitrile], the IC50 in assay [1] and in assay [2] was not above 200 nM in each case.

In the case of `Cn1cnnc1-c1cc(C#N)ccc1-c1cc(C2CC2)nc(N2Cc3ccc(CNCC4(C)COC4)cc3C2=O)c1` [AMU-2, 4-{2-Cyclopropyl-6-[6-({[(3-methyloxetan-3-yl)methyl]amino}methyl)-1-oxo-3H-isoindol-2-yl]pyridin-4-yl}-3-(4-methyl-1,2,4-triazol-3-yl)benzonitrile], the IC50 in assay [1] and in assay [2] was not above 200 nM in each case.

`Cn1cnnc1-c1cc(C#N)ccc1-c1cc(C2CC2)nc(N2Cc3ccc(CNC4COC4)cc3C2=O)c1` [AMV-2, 4-(2-Cyclopropyl-6-{6-[(oxetan-3-ylamino)methyl]-1-oxo-3H-isoindol-2-yl}pyridin-4-yl)-3-(4-methyl-1,2,4-triazol-3-yl)benzonitrile]: the IC50 in assay [1] and in assay [2] was not above 200 nM each time.

On to `CN(Cc1cc(F)c2c(c1)C(=O)N(c1cc(-c3ccc(C#N)cc3-c3nncn3C)cc(C3CC3)n1)C2)CC1(O)CCC1` [AMW-2, 4-{2-Cyclopropyl-6-[4-fluoro-6-({[(1-hydroxycyclobutyl)methyl](methyl)amino}methyl)-1-oxo-3H-isoindol-2-yl]pyridin-4-yl}-3-(4-methyl-1,2,4-triazol-3-yl)benzonitrile], for which the IC50 in assay [1] and in assay [2] was not above 200 nM throughout.

Broadly, the IC50 is the concentration at which inhibition is half-maximal.
